In US11261186B2, “Biaryl derivative as GPR120 agonist” (LG CHEM, LTD., priority 2014, dated 2022) one finds EC50 data, which are given here for 37 compounds.

The EC50 is the concentration at which the effect is half-maximal.

This experiment addresses T1, hGPR120 (Homo sapiens, UniProt Q5NUL3).
T1 construct: expressed in transfected cells; host or cells: CHO-K1
T1 sequence (Q5NUL3 1-361): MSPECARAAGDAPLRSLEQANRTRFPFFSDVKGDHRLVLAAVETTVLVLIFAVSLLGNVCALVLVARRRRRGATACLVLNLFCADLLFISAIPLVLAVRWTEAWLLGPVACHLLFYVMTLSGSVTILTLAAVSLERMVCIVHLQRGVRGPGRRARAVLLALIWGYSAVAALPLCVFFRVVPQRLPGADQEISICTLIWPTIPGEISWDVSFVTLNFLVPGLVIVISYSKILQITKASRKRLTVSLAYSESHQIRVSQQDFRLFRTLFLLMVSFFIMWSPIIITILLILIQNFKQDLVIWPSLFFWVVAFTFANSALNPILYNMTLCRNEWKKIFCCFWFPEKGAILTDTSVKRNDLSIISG
Kind of experiment: Measurement of Activity of GPR120 Agonist (Cell-Based Assay), Calcium 5 dye fluorescence. The note with it: CHO-K1 cells expressing Ga16 and hGPR120. Put shortly:
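Gα16/hGPR120 CHO-K1; 18 h plating, 37 °C, 5% CO2; Calcium 5 dye load 1 h; agonist serial dilution, 0.5% DMSO final; fluor Ex485/Em525; response as % of 1% DMSO vehicle.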
Turning to `O=C(O)CC1CCN(c2c(F)cc(-c3nccc(Oc4ccccc4)n3)cc2F)CC1` [Example 510, 2-[1-[4-[4-phenoxy-pyrimidin-2-yl]-2,6-difluoro-phenyl]-4-piperidyl]acetic acid], the EC50 was less than 200 nM. In the case of `O=C(O)CC1CCN(c2c(F)cc(-c3nccc(Oc4ccc(F)cc4)n3)cc2F)CC1` [Example 511, 2-[1-[4-[4-(4-fluorophenoxy)pyrimidin-2-yl]-2,6-difluoro-phenyl]-4-piperidyl]acetic acid] it was less than 200 nM. Consider `O=C(O)CC1CCN(c2c(F)cc(-c3nccc(Oc4cccnc4)n3)cc2F)CC1` [Example 512], for which the EC50 is 200 to 2000 nM. The result for `O=C(O)CC1CCN(c2c(F)cc(-c3cncc(Oc4ccc(F)cc4)n3)cc2F)CC1` [Example 513, 2-[1-[2,6-difluoro-4-[6-(4-fluorophenoxy)pyrazin-2-yl]phenyl]-4-piperidyl]acetic acid] reads less than 200 nM; that for `COc1ccc(Oc2ccnc(-c3cc(F)c(N4CCC(CC(=O)O)CC4)c(F)c3)n2)cc1` [Example 514, 2-[1-[4-[4-(4-methoxyphenoxy)pyrimidin-2-yl]-2,6-difluoro-phenyl]-4-piperidyl]acetic acid], 200 to 2000 nM; that for `Cc1cc(Oc2ccc(F)cc2)nc(-c2cc(F)c(N3CCC(CC(=O)O)CC3)c(F)c2)n1` [Example 515, 2-[1-[2,6-difluoro-4-[4-(4-fluorophenoxy)-6-methyl-pyrimidin-2-yl]phenyl]-4-piperidyl]acetic acid], 200 to 2000 nM. The result for `Cc1ccc(Oc2ccnc(-c3cc(F)c(N4CCC(CC(=O)O)CC4)c(F)c3)n2)cc1` [Example 516, 2-[1-[4-[4-(p-tolyloxy)pyrimidin-2-yl]-2,6-difluoro-phenyl]-4-piperidyl]acetic acid] reads less than 200 nM.

Regarding `O=C(O)CC1CCN(c2c(F)cc(-c3nccc(Oc4ccc(F)c(F)c4)n3)cc2F)CC1` [Example 517, 2-[1-[4-[4-(3,4-difluorophenoxy)pyrimidin-2-yl]-2,6-difluoro-phenyl]-4-piperidyl]acetic acid], the EC50 is less than 200 nM. Regarding `Cc1cc2cc(Cl)cc(-c3cc(F)c(OCCCC(=O)O)c(F)c3)c2o1` [Example 518, 4-[4-(5-chloro-2-methyl-benzofuran-7-yl)-2,6-difluoro-phenoxy]-butyric acid], the EC50 is less than 200 nM. Take `Cc1cc2cc(Cl)cc(-c3cc(F)c(C(C)CCCC(=O)O)c(F)c3)c2o1` (stereo not shown) [Example 519, 5-[4-(5-chloro-2-methyl-benzofuran-7-yl)-2,6-difluoro-phenyl]-hexanoic acid]: the EC50 fell in the range of 200 to 2000 nM. Regarding `CN(CCCC(=O)O)c1c(F)cc(-c2cccc(OCC3CCC3)c2)cc1F` [Example 520, 4-[(3′-cyclobutylmethoxy-3,5-difluoro-biphenyl-4-yl)-methyl-amino]-butyric acid], the EC50 lay in the range of 200 to 2000 nM.

With `O=C(O)CCCOc1c(F)cc(-c2cccc(OCC3CCC3)c2)cc1F` [Example 521, 4-(3′-cyclobutylmethoxy-3,5-difluoro-biphenyl-4-yloxy)-butyric acid], the EC50 was less than 200 nM. Turning to `CN(CCCC(=O)O)c1c(F)cc(-c2cccc(OCC3CCC3)n2)cc1F` [Example 522, 4-{[4-(6-cyclobutylmethoxy-pyridin-2-yl)-2,6-difluoro-phenyl]-methyl-amino}-butyric acid], the EC50 is less than 200 nM. In the case of `O=C(O)CCCOc1c(F)cc(-c2cccc(OCC3CCC3)n2)cc1F` [Example 523, 4-[4-(6-cyclobutylmethoxy-pyridin-2-yl)-2,6-difluoro-phenoxy]-butyric acid] it was less than 200 nM. As for `CN(CCCC(=O)O)c1c(F)cc(-c2cccc(OCC3CC3)c2)cc1F` [Example 524, 4-[(3′-cyclopropylmethoxy-3,5-difluoro-biphenyl-4-yl)-methyl-amino]-butyric acid], the EC50 is less than 200 nM. In the case of `CN(CCCC(=O)O)c1c(F)cc(-c2cccc(OC3CCCC3)c2)cc1F` [Example 525, 4-[(3′-cyclopentyloxy-3,5-difluoro-biphenyl-4-yl)-methyl-amino]-butyric acid] it was less than 200 nM; in that of `COc1ccc(-c2cc(F)c(OCCCC(=O)O)c(F)c2)cc1OCC1CC1` [Example 526, 4-(3′-cyclopropylmethoxy-3,5-difluoro-4′-methoxy-biphenyl-4-yloxy)-butyric acid], less than 200 nM; in that of `O=C(O)CCCOc1c(F)cc(-c2ccc(F)c(OCC3CC3)c2)cc1F` [Example 527, 4-(3′-cyclopropylmethoxy-3,5,4′-trifluoro-biphenyl-4-yloxy)-butyric acid], less than 200 nM. As for `O=C(O)CCCOc1c(F)cc(-c2cc(F)cc(OC3CCC3)c2)cc1F` [Example 528, 4-(5′-cyclobutoxy-3,5,3′-trifluoro-biphenyl-4-yloxy)-butyric acid], the EC50 is less than 200 nM. For `Cc1ccc(OCC2CCC2)cc1-c1cc(F)c(N(C)CCCC(=O)O)c(F)c1` [Example 529, 4-[(5′-cyclobutylmethoxy-3,5-difluoro-2′-methyl-biphenyl-4-yl)-methyl-amino]-butyric acid], the EC50 lay within 200 to 2000 nM.

As for `Cc1ccc(OCC2CCC2)cc1-c1cc(F)c(OCCCC(=O)O)c(F)c1` [Example 530, 4-(5′-cyclobutylmethoxy-3,5-difluoro-2′-methyl-biphenyl-4-yloxy)-butyric acid], the EC50 was less than 200 nM. For `CN(CCCC(=O)O)c1c(F)cc(-c2ccc(Cl)c(OC3CCC3)n2)cc1F` [Example 531, 4-{[4-(5-chloro-6-cyclobutoxy-pyridin-2-yl)-2,6-difluoro-phenyl]-methyl-amino}-butyric acid], the EC50 fell in the range of 200 to 2000 nM. The result for `Cc1ccc(-c2cc(F)c(OCCCC(=O)O)c(F)c2)cc1OCC1CC1` [Example 532, 4-(3′-cyclopropylmethoxy-3,5-difluoro-4′-methyl-biphenyl-4-yloxy)-butyric acid] reads less than 200 nM; that for `O=C(O)CCCOc1c(F)cc(-c2ccc(Cl)c(OC3CCC3)n2)cc1F` [Example 533, 4-[4-(5-chloro-6-cyclobutoxy-pyridin-2-yl)-2,6-difluoro-phenoxy]-butyric acid], 200 to 2000 nM; that for `O=C(O)CCCOc1c(F)cc(-c2ccc(Cl)c(OCC3CC3)c2)cc1F` [Example 534, 4-(4′-chloro-3′-cyclopropylmethoxy-3,5-difluoro-biphenyl-4-yloxy)-butyric acid], 200 to 2000 nM. As for `O=C(O)CCCOc1ccc(-c2cc(F)cc(OC3CCC3)c2)cc1F` [Example 536, 4-(5′-cyclobutoxy-3,3′-difluoro-biphenyl-4-yloxy)-butyric acid], the EC50 was less than 200 nM.

Take `O=C(O)CCCCc1ccc(-c2cccc(OC3CCC3)n2)cc1F` [Example 537, 5-[4-(6-cyclobutoxy-pyridin-2-yl)-2-fluoro-phenyl]-pentanoic acid]: the EC50 was less than 200 nM. The result for `O=C(O)CCCOc1ccc(-c2cccc(OC3CCC3)n2)cc1F` [Example 538, 4-[4-(6-cyclobutoxy-pyridin-2-yl)-2-fluoro-phenoxy]-butyric acid] reads less than 200 nM; that for `O=C(O)CCCOc1ccc(-c2cccc(OCC3CCC3)n2)cc1F` [Example 539, 4-[4-(6-cyclobutylmethoxy-pyridin-2-yl)-2-fluoro-phenoxy]-butyric acid], 200 to 2000 nM; that for `O=C(O)CCCOc1ccc(-c2cccc(SC3CCC3)n2)cc1F` [Example 540, 4-[4-(6-cyclobutylsulfanyl-pyridin-2-yl)-2-fluoro-phenoxy]-butyric acid], less than 200 nM. The result for `O=C(O)C1CC1COc1c(F)cc(-c2cc(F)cc(OC3CCC3)c2)cc1F` (stereo not shown) [Example 541, 2-(3′-cyclobutoxy-3,5,5′-trifluoro-biphenyl-4-yloxymethyl)-cyclopropanecarboxylic acid] reads less than 200 nM; that for `Cc1cc(OC2CCC2)nc(-c2cc(F)c(OCC3CC3C(=O)O)c(F)c2)n1` (stereo not shown) [Example 542, 2-[4-(4-cyclobutoxy-6-methyl-pyrimidin-2-yl)-2,6-difluoro-phenoxymethyl]-cyclopropanecarboxylic acid], less than 200 nM. In the case of `O=C(O)C1CC1COc1c(F)cc(-c2nccc(OC3CCC3)n2)cc1F` (stereo not shown) [Example 543, 2-[4-(4-cyclobutoxy-pyrimidin-2-yl)-2,6-difluoro-phenoxymethyl]-cyclopropanecarboxylic acid] it was less than 200 nM; in that of `O=C(O)C1CC1COc1c(F)cc(-c2cccc(OC3CCC3)n2)cc1F` (stereo not shown) [Example 544, 2-[4-(6-cyclobutoxy-pyridin-2-yl)-2,6-difluoro-phenoxymethyl]-cyclopropanecarboxylic acid], less than 200 nM; in that of `O=C(O)C1CC1COc1c(F)cc(-c2nccc(OCC3CC3)n2)cc1F` (stereo not shown) [Example 545, 2-[4-(4-cyclopropylmethoxy-pyrimidin-2-yl)-2,6-difluoro-phenoxymethyl]-cyclopropanecarboxylic acid], 200 to 2000 nM.

Take `Cc1cc(OCC2CC2)nc(-c2cc(F)c(OCC3CC3C(=O)O)c(F)c2)n1` (stereo not shown) [Example 546, 2-[4-(4-cyclopropylmethoxy-6-methyl-pyrimidin-2-yl)-2,6-difluoro-phenoxymethyl]-cyclopropanecarboxylic acid]: the EC50 was 200 to 2000 nM. As for `O=C(O)C1CC1COc1c(F)cc(-c2cncc(OCC3CC3)n2)cc1F` (stereo not shown) [Example 547, 2-[4-(6-cyclopropylmethoxy-pyrazin-2-yl)-2,6-difluoro-phenoxymethyl]-cyclopropanecarboxylic acid], the EC50 was in the range of 200 to 2000 nM.
